ChEMBL document CHEMBL1201862, “PubChem BioAssay data set” (2004)
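Assay format: 96-well plates, 48-hour exposure. GI50: concentration for 50% inhibition of growth.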 The source made the active and inactive calls. No stated cut-off is given here; in the data, active = GI50 up to about 1.1 µM and inactive = higher.

Legend:
Experiment in all cases: growth of human tumour cells (NCI), 48 h
[1] = test system: HCT-116
[2] = test system: RXF 393
[3] = test system: SK-MEL-28
[4] = test system: KM12
[5] = test system: HCT-15
[6] = test system: SK-MEL-5
[7] = test system: OVCAR-3
[8] = test system: HCC 2998
[9] = test system: Malme-3M
[10] = test system: MCF7
[11] = test system: MDA-MB-435
[12] = test system: TK-10
[13] = test system: A498
[14] = test system: SW-620
[15] = test system: SNB-19
[16] = test system: UACC-257
[17] = test system: BT-549
[18] = test system: SK-OV-3
[19] = test system: SR
[20] = test system: UO-31
[21] = test system: NCI-H460
[22] = test system: CAKI-1
[23] = test system: SNB-75
[24] = test system: SK-MEL-2
[25] = test system: COLO 205
[26] = test system: UACC-62
[27] = test system: MOLT-4
[28] = test system: U-251
[29] = test system: OVCAR-5
[30] = test system: SF-295
[31] = test system: OVCAR-4
[32] = test system: DU-145
[33] = test system: NCI/ADR-RES
[34] = test system: HOP-92
[35] = test system: EKVX
[36] = test system: M14
[37] = test system: NCI-H522
[38] = test system: SF-268
[39] = test system: MDA-MB-231
[40] = test system: 786-0
[41] = test system: Hs-578T
[42] = test system: HOP-62
[43] = test system: SN12C
[44] = test system: CCRF-CEM
[45] = test system: A549
[46] = test system: K562
[47] = test system: ACHN
[48] = test system: OVCAR-8
[49] = test system: LOX IMVI
[50] = test system: MDA-N
[51] = test system: IGROV-1
[52] = test system: NCI-H226
[53] = test system: T47D
[54] = test system: RPMI-8226
[55] = test system: HT-29
[56] = test system: NCI-H23
[57] = test system: PC-3

O=C1Nc2ccccc2/C1=C1\C(=O)Nc2ccccc21 [ISOINDIGO]
GI50 [1]: 17 µM (inactive)
GI50 [2]: 3.56 µM (inactive)
GI50 [3]: 91.2 µM (inactive)
GI50 [4]: 21.6 µM (inactive)
GI50 [5]: 3.84 µM
GI50 [6]: 59.7 µM (inactive)
GI50 [7]: 19.3 µM (inactive)
GI50 [8]: 23.2 µM (inactive)
GI50 [9]: 13.2 µM (inactive)
GI50 [10]: 4.52 µM (inactive)
GI50 [11]: 11.9 µM (inactive)
GI50 [12]: 31.6 µM (inactive)
GI50 [13]: 20.9 µM (inactive)
GI50 [14]: 4.57 µM (inactive)
GI50 [15]: 22.5 µM (inactive)
GI50 [16]: 31.1 µM (inactive)
GI50 [17]: 25.6 µM (inactive)
GI50 [18]: 59.7 µM (inactive)
GI50 [19]: 2.82 µM (inactive)
GI50 [20]: 13.6 µM (inactive)
GI50 [21]: 21.6 µM (inactive)
GI50 [22]: 19.7 µM (inactive)
GI50 [23]: 14.1 µM (inactive)
GI50 [24]: 18.5 µM (inactive)
GI50 [25]: 21.9 µM (inactive)
GI50 [26]: 17.3 µM (inactive)
GI50 [27]: 3.59 µM (inactive)
GI50 [28]: 11.4 µM (inactive)
GI50 [29]: 3.48 µM (inactive)
GI50 [30]: 60.3 µM (inactive)
GI50 [31]: 10 µM (inactive)
GI50 [32]: 12.9 µM (inactive)
GI50 [33]: 17.3 µM (inactive)
GI50 [34]: 20.6 µM (inactive)
GI50 [35]: 20.7 µM (inactive)
GI50 [36]: 32.1 µM (inactive)
GI50 [37]: 10.3 µM (inactive)
GI50 [38]: 31.2 µM (inactive)
GI50 [39]: 27.8 µM (inactive)
GI50 [40]: 9.42 µM (inactive)
GI50 [41]: 49.2 µM (inactive)
GI50 [42]: 25 µM (inactive)
GI50 [43]: 19 µM (inactive)
GI50 [44]: 2.9 µM (inactive)
GI50 [45]: 27.4 µM (inactive)
GI50 [46]: 7.48 µM (inactive)
GI50 [47]: 12.6 µM (inactive)
GI50 [48]: 18.8 µM (inactive)
GI50 [49]: 18.6 µM (inactive)
GI50 [50]: 24.5 µM (inactive)
GI50 [51]: 10.3 µM (inactive)
GI50 [52]: > 100 µM (inactive)
GI50 [53]: 1.35 µM (inactive)
GI50 [54]: 17.3 µM (inactive)
GI50 [55]: 4.98 µM (inactive)
GI50 [56]: 20.9 µM (inactive)
GI50 [57]: 9.75 µM (inactive)
